Data taken from EP0745595A1, “3-(3-Aryloxyphenyl)-1-(substituted methyl)-s-triazine-2,4,6-oxo or thiotrione herbicidal agents” (American Cyanamid Company, priority 1995, dated 1996).

How the values were obtained:
Assay type in all cases: in vivo
IPOMOEA SPP. = test: Preemergence herbicidal evaluation, IPOSS (Morningglory spp.); details: rated four to five weeks after treatment
Outline: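 Seeds of morningglory (Ipomoea spp.) were mixed with potting soil and sown on roughly one inch of soil in pint cups for a preemergence herbicide test. The cups were put on greenhouse benches, watered, and maintained by standard greenhouse practice. Four to five weeks after treatment each cup was scored visually on a 0-9 scale against a control.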

[1] = test system: ORYZA SATIVA, L. TEBONNET; test: Preemergence herbicidal evaluation, ORYSAT (Rice, Tebonnet); details: rated four to five weeks after treatment
Outline: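 Seeds of rice (Oryza sativa, Tebonnet) were mixed with potting soil and sown on about one inch of soil in pint cups, then treated preemergence. Cups sat on greenhouse benches, watered and tended by standard greenhouse practice. Four to five weeks after treatment, plants were visually scored on a 0-9 scale relative to a control.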

[2] = test system: ORYZA SATIVA, L. TEBONNET; test: Rice tolerance to post-transplant applications under flooded paddy conditions, ORYSAT (Rice, Tebonnet); details: post-transplant rice, 3-4 weeks after treatment
Outline: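 Two ten-day-old Tebonnet rice seedlings were transplanted into silt loam and kept flooded 1.5 to 3 cm deep. Three days after transplanting, the flood surface received the compound in aqueous/acetone 50/50 v/v at about 0.5, 0.25, 0.125 or 0.063 kg/ha. Injury was rated visually on a 0-9 scale versus control after 3-4 weeks.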

[3] = test system: ABUTILON THEOPHRASTI, MEDIC.; test: Preemergence herbicidal evaluation, ABUTH (Velvetleaf); details: rated four to five weeks after treatment
Outline: (§1)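 Preemergence, greenhouse: seed + potting soil sown on ~1 inch soil in cups; aqueous acetone spray, ~0.125–0.50 kg/ha equivalent; rated 0-9 vs control at 4–5 wk.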

CHENOPODIUM ALBUM, L. = test: Postemergence herbicidal evaluation, CHEAL (Lambsquarters, Common)
Outline: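 Seedlings of common lambsquarters (Chenopodium album) were raised in jiffy flats for roughly two weeks, then sprayed postemergence through a nozzle at 40 psi with test compound dispersed in 50/50 acetone/water containing 0.5% TWEEN®20 surfactant. Plants were kept on greenhouse benches under standard care and rated visually on a 0-9 scale versus controls.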

[4] = test system: GLYCINE MAX(L) MERR. CV. WILLIAMS; test: Postemergence herbicidal evaluation, GLXMAW (Soybean, Williams); design: key to GLXMAW rating / Herbicidal effect rating, GLXMAW / GLXMAW: 0-9 visual rating scale vs untreated control
Outline: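 Soybean seedlings (Williams) were raised in jiffy flats for roughly two weeks, then sprayed postemergence through a nozzle at 40 psi with test compound dispersed in 50/50 acetone/water containing 0.5% TWEEN®20. Treated plants were kept on greenhouse benches under normal care and visually rated on a 0-9 scale four to five weeks later.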

[5] = test system: AMBROSIA ARTEMISIIFOLIA, L.; test: Preemergence herbicidal evaluation, AMBEL (Ragweed, Common); details: rated four to five weeks after treatment
Outline: as §1

[6] = test system: ECHINOCHLOA CRUS-GALLI, (L) BEAU; test: Preemergence herbicidal evaluation, ECHCG (Barnyardgrass); details: rated four to five weeks after treatment
Outline: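 Barnyardgrass seeds were mixed with potting soil and planted on about one inch of soil in pint cups for preemergence testing. Treated cups were kept on greenhouse benches, watered and maintained by standard greenhouse practice. After four to five weeks, each cup was visually rated on a 0-9 scale against an untreated control.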

[7] = test system: CYPERUS SEROTINUS, ROTTB.; test: Preemergence weed control under flooded paddy conditions, CYPSE (Flatsedge); details: preemergence, 3-4 weeks after treatment
Outline: (§2)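 Seeds or propagules sown in top 0.5 cm of silt loam in undrained containers, flooded 1.5 to 3 cm throughout. Compounds in aqueous/acetone 50/50 v/v pipetted into flood water at about 0.5, 0.25, 0.125 and 0.063 kg/ha. Visual 0-9 rating versus control after three to four weeks in greenhouse.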

[8] = test system: TRITICUM AESTIVUM, CV. APOLLO; test: Preemergence herbicidal evaluation, TRZAWO (Wheat, Winter, CV. APOLLO); details: rated four to five weeks after treatment
Outline: as §1

SAGITTARIA PYGMAEA, L. = test: Preemergence weed control under flooded paddy conditions, SAGPY (Arrowhead (Pygmaea)); details: preemergence, 3-4 weeks after treatment
Outline: as §2

GALIUM APARINE = test: Preemergence herbicidal evaluation, GALAP (Galium); details: rated four to five weeks after treatment
Outline: as §1

[9] = test system: GLYCINE MAX(L) MERR. CV. WILLIAMS; test: Preemergence herbicidal evaluation, GLXMAW (Soybean, Williams); details: rated four to five weeks after treatment
Outline: as §1

[10] = test system: SETARIA VIRIDIS, (L) BEAU; test: Preemergence herbicidal evaluation, SETVI (Foxtail, Green); details: rated four to five weeks after treatment
Source text: Results of herbicide evaluation are expressed on a rating scale (0-9). The scale is based upon a visual observation of plant stand, vigor, malformation, size, chlorosis and overall plant appearance as compared with a control.
The preemergence herbicidal activity of the test compounds of the present invention is exemplified by the following tests in which the seeds of a variety of monocotyledonous and dicotyledonous plants are separately mixed with potting soil and planted on top of approximately one inch of soil in separate pint cups. […] The treated cups are then placed on greenhouse benches, watered and cared for in accordance with conventional greenhouse procedures. From four to five weeks after treatment, the tests are terminated and each cup is examined and rated according to the rating system provided in Example 40.
The compounds evaluated are reported by compound number given in Example 40.

ZEA MAYS L. = test: Preemergence herbicidal evaluation, ZEAMX (Corn, Field); details: rated four to five weeks after treatment
Outline: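 Corn (Zea mays) seeds were mixed with potting soil and planted on about one inch of soil in pint cups, then treated preemergence. Cups were kept on greenhouse benches, watered and maintained conventionally, and after four to five weeks were visually rated on a 0-9 scale versus an untreated control.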

## COC(=O)Cn1c(=O)n(C)c(=O)n(-c2cc(Oc3ccc([S+](C)[O-])cc3Cl)ccc2[N+](=O)[O-])c1=O (stereo not drawn) [Compound 36]
IPOMOEA SPP.; Rate 0.125 kg/ha
  IPOSS herbicidal rating: 0.0
IPOMOEA SPP.; Rate 0.250 kg/ha
  IPOSS herbicidal rating: 0.0
IPOMOEA SPP.; Rate 0.500 kg/ha
  IPOSS herbicidal rating: 0.0
[1]; Rate 0.125 kg/ha
  ORYSAT herbicidal rating: 0.0
[1]; Rate 0.250 kg/ha
  ORYSAT herbicidal rating: 0.0
[1]; Rate 0.500 kg/ha
  ORYSAT herbicidal rating: 0.0
[2]; 0.063 kg/ha
  Herbicidal effect rating, ORYSAT: 0.0
[2]; 0.125 kg/ha
  Herbicidal effect rating, ORYSAT: 0.0
[2]; 0.250 kg/ha
  Herbicidal effect rating, ORYSAT: 0.0
[2]; 0.500 kg/ha
  Herbicidal effect rating, ORYSAT: 0.0
[3]; Rate 0.125 kg/ha
  ABUTH herbicidal rating: 0.0
[3]; Rate 0.250 kg/ha
  ABUTH herbicidal rating: 0.0
[3]; Rate 0.500 kg/ha
  ABUTH herbicidal rating: 0.0
CHENOPODIUM ALBUM, L.; Rate 0.125 kg/ha
  CHEAL rating: 8.0
CHENOPODIUM ALBUM, L.; Rate 0.250 kg/ha
  CHEAL rating: 8.0
CHENOPODIUM ALBUM, L.; Rate 0.500 kg/ha
  CHEAL rating: 8.0
[4]; Rate 0.125 kg/ha
  GLXMAW rating: 5.0
[4]; Rate 0.250 kg/ha
  GLXMAW rating: 5.0
[4]; Rate 0.500 kg/ha
  GLXMAW rating: 5.0
[5]; Rate 0.125 kg/ha
  AMBEL herbicidal rating: 0.0
[5]; Rate 0.250 kg/ha
  AMBEL herbicidal rating: 0.0
[5]; Rate 0.500 kg/ha
  AMBEL herbicidal rating: 0.0
[6]; Rate 0.125 kg/ha
  ECHCG herbicidal rating: 0.0
[6]; Rate 0.250 kg/ha
  ECHCG herbicidal rating: 0.0
[6]; Rate 0.500 kg/ha
  ECHCG herbicidal rating: 0.0
[7]; 0.063 kg/ha
  Herbicidal effect rating, CYPSE: 0.0
[7]; 0.125 kg/ha
  Herbicidal effect rating, CYPSE: 0.0
[7]; 0.250 kg/ha
  Herbicidal effect rating, CYPSE: 0.0
[7]; 0.500 kg/ha
  Herbicidal effect rating, CYPSE: 0.0
[8]; Rate 0.125 kg/ha
  TRZAWO herbicidal rating: 0.0
[8]; Rate 0.250 kg/ha
  TRZAWO herbicidal rating: 0.0
[8]; Rate 0.500 kg/ha
  TRZAWO herbicidal rating: 0.0
SAGITTARIA PYGMAEA, L.; 0.063 kg/ha
  Herbicidal effect rating, SAGPY: 0.0
SAGITTARIA PYGMAEA, L.; 0.125 kg/ha
  Herbicidal effect rating, SAGPY: 0.0
SAGITTARIA PYGMAEA, L.; 0.250 kg/ha
  Herbicidal effect rating, SAGPY: 0.0
SAGITTARIA PYGMAEA, L.; 0.500 kg/ha
  Herbicidal effect rating, SAGPY: 0.0
GALIUM APARINE; Rate 0.125 kg/ha
  GALAP herbicidal rating: 0.0
GALIUM APARINE; Rate 0.250 kg/ha
  GALAP herbicidal rating: 0.0
GALIUM APARINE; Rate 0.500 kg/ha
  GALAP herbicidal rating: 0.0
[9]; Rate 0.125 kg/ha
  GLXMAW herbicidal rating: 0.0
[9]; Rate 0.250 kg/ha
  GLXMAW herbicidal rating: 0.0
[9]; Rate 0.500 kg/ha
  GLXMAW herbicidal rating: 0.0
[10]; Rate 0.125 kg/ha
  SETVI herbicidal rating: 0.0
[10]; Rate 0.250 kg/ha
  SETVI herbicidal rating: 0.0
[10]; Rate 0.500 kg/ha
  SETVI herbicidal rating: 0.0
ZEA MAYS L.; Rate 0.125 kg/ha
  ZEAMX herbicidal rating: 0.0
ZEA MAYS L.; Rate 0.250 kg/ha
  ZEAMX herbicidal rating: 0.0
ZEA MAYS L.; Rate 0.500 kg/ha
  ZEAMX herbicidal rating: 0.0
